Measured values published in patent publication US7112318B2, “Non-invasive diagnostic imaging technology for mitochondria dysfunction using radiolabeled lipophilic salts” (The Johns Hopkins University, priority 2002, dated 2006).

Legend:
[1] = Stability of fluorination: total bone uptake after i.v. injection; assay type: in vivo; conditions: mice, 5 and 30 min p.i., compared to mice injected with F-18 only
Description: Methods: Mice were injected via the tail vein with 25 μCi of F-18-PhC; 5 and 30 min p.i., the left or right femur bone was removed, and bone radioactivity together with standard (1:100 of injected dose) were counted in a gamma counter. A parallel group of mice was injected with free fluorides (F-18). Three mice of each group were studied at each time point. Radioactivity is represented as percentage of injected dosed (% ID) and total bone uptake was calculated as activity in femur bone×20.

[2] = test system: FCA-induced inflammation; test: Accumulation in FCA-induced inflammation tissue and healthy muscle; assay type: in vivo; conditions: rats, 3 days after administration of FCA
Description: (§1) 0.1 ml of nitrosomethyl urea (NUM) was introduced i.p in female rats (150 g). When tumor reached an approximate size of 1 to 1.5 cm, FCA was injected (0.15 ml) to the hind limb footpad. Uptake assays were carried out 3 days thereafter. F-18-FBnTP (0.25 mCi) was injected via tail vein. Sixty minutes later tumor, inflamed tissue and healthy muscle tissue of the opposite limb (control) were collected on ice, weighed and counted in a gamma counter together with standards.
The accumulation of the novel F-18-phosphonium cations, F-18-FBnTP and F-18-fluoropropyl triphenyl phosphonium (F-18-FPTP) in comparison with F-18-FDG in FCA-induced inflammation and healthy tissue is presented in Table 2. Induction of inflammation and activity counting were carried out as described above.

[3] = test system: human lung carcinoma A549 cells; test: Detection of response of lung carcinoma tumor to taxeter in vivo; conditions: A549 tumor in nude mice, 48 hours after i.v. taxeter, 60 min after tracer, normalized to muscle
Description: Methods: 2×10^6 human lung carcinoma A549 cells were inoculated s.q. in 12 nude mice. When tumor size reached an approximate size of 5—10 mm, six mice were injected i.v. with taxeter and six mice served as control. Uptake assays were carried out 48 hours thereafter. 25 μCi of F-18-FBnTP were injected i.v., and tumor and muscle tissue was dissected after 60 min.

[4] = test system: prostate carcinoma; test: Tumor selectivity in orthotopic model of prostate carcinoma; assay type: in vivo; conditions: nude mice, normalized to muscle
Description: Methods: 2×10^6 cells were injected, under anesthesia, into the prostate epithelial tissue of nude mice. When tumor reached an approximate size of 5 mm, uptake assays were performed as described above. Tumor selectivity of F-18-FBnTP and F-18-FDG was compared (3 mice in each group)

[5] = Stability in plasma after injection of the agent into mice (column-switch HPLC radiochromatography); assay type: in vivo
Description: Samples of mouse plasma were obtained from heparinized whole bloodcollected 5, 15 and 30 min p.i. of the tracer. To eliminate binding to plasma proteins, the plasma was added to solid urea to give a final concentration of 8M urea. The plasma-urea was loaded into a column switch HPLC system (Hilton 2000), in which the plasma passes through a small capture column (Oasis Sorbent, Waters Corp.), which retains lipophilic solutes, while polar species fail to bind and are detected as they pass through a positron detector. After four minutes, the capture column is free of plasma proteins and polar species. Then, the contents of the capture column was swept onto an analytical column (Prodigy ODS-3, Phenomenex) by 40% acetonitrile, 60% triethylamine acetate buffer pH 4.1 at 1 mL/min, where separation of the parent compound and lipophilic metabolites occurs. The effluent from the analytical column also passes through the positron flow detector. The proportion of each species is determined from the area under each chromatographic peak. Results: Radiochemical purity of the 18F-labeled FBnTP was more than 95%. […] FIG. 1 depicts the chromatogram of plasma collected 30 min p.i., and the parental compound incubated for a similar time period (30 min) in buffered saline. Plasma activity and parental compound peaked at same time (˜6 min).

[6] = Biodistribution in mice 60 min after i.v. injection; conditions: 60 min after iv. injection
Description: Three to five mice were used for the biodistribution study of each tracer. Nonanesthetized animals were injected i.v. with tracer solution (FBnTP or FPTP, TPMP 25 μCi; MIBI 40 μCi; TPP 2 μCi, all in a volume of 0.2 mL saline) then killed by neck dislocation at 60 min after injection. The organs and tissues of interest were removed and counted by a radioactivity counter along with standards (1:1000) (LKB Wallac, 1282 Compugamma CS).

[7] = test system: Human lung carcinoma H549 cells; test: Mitochondria membrane potential (MMP)-dependent cellular uptake with CCCP; assay type: cell-based; conditions: 30 min
Description: The extent of MMP-dependent cellular uptake of F-18-FBnTP was assessed using CCCP, a known protonophore that selectively abolishes the MMP.
Methods: Human lung carcinoma H549 cells ([…]) were incubated with 0.1 μCi/ml F-18-FBnTP for 30 min. Samples of the suspension (1 mL) were transferred to Eppendorf s vials and placed in a 370C bath. Varying concentrations (30, 60, 90, 120 μM) of CCCP were added to the suspension. After 30 min of incubation with CCCP, the Eppendorf vials were centrifuged for 1 min, and activity in pellet and supernatant was immediately counted.

[8] = test system: orthotopic NMU mammary tumor; test: Tracer uptake in NMU mammary tumor versus healthy gland and FCA inflammation; assay type: in vivo; conditions: NMU-bearing rats, 60 min after i.v., normalized to muscle
Source text: The carcinogen nitrosomethyl urea (NMU) induces carcinoma tumors solely in the mammary gland of female rats. Therefore, the orthotopic NMU mammary tumor is an excellent model for evaluating tracer tumor selectivity by contrasting radioactivity accumulating in mammary gland infested with carcinoma cells and healthy mammary gland. Freund Complete Adjuvant (FCA) is a well_studied inflammation agent in rats Induction of FCA inflammation in NMU-bearing rats allows for direct quantitation of tracer capability to differentiate carcinoma from inflammation.
as §1

[9] = test system: myocardium; test: F-18-FBnTP uptake kinetics in the myocardium (dog PET); assay type: in vivo, Mongrel dogs
Description: Methods: Mongrel dogs (BW=35 kg) were injected with 3–4 mCi of F-18-FBnTP. Images were acquired on a GE 4096+ scanner (15 slices, 6.5 mm slice thickness). PET scans of increasing duration (15 sec to 20 min) were acquired over a total time of 85 min post-injection. Arterial blood samples (0.5 ml in volume) were collected every few seconds for the first 3 minutes and at gradually increasing intervals (1 to 10 min) for the remaining time of the imaging study. The vascular and myocardial kinetics of F-18-FBnTP was analyzed using the ROI method.

[10] = test system: myocardium; test: F-18-FBnTP myocardial accumulation in heart failure (pacing 210 bpm, 4 weeks, PET); assay type: in vivo, Mongrel dog
Description: Pacing of the mongrel dog heart at high rate (210 bpm) for a four weeks is a well-established model of heart failure. The advantage of this model is that the cardiomayopathy solely involve apoptosis without stenosis of coronary artery or related ischemia. Therefore, in this model the affect of apoptosis on FBnTP uptake can be dissected.
Methods: Preparation of dog and data acquisition was performed as described above. Mongrel dog was installed with a pacemaker in the rib case and underwent FBnTP PET scan (presented above). Following the baseline scan, the dog_s heart was paced at a rate of 210 bpm for 4 weeks and a second scan was acquired.
Quantitation of FBnTP in the myocardium was performed using region of interest placed on co-registered myocardial images, whose activity was normalized to the injected dose, before and after pacing. An example for ROI placement is illustrated in FIG. 18.

[18F]c1ccc(C[P+](c2ccccc2)(c2ccccc2)c2ccccc2)cc1 [Example F-18-FBnTP, F-18-fluorobenzyl triphenyl phosphonium]
total bone uptake [1]: minimal bone uptake | total bone uptake ([1]; listed as F-18-PhC): marginal bone uptake | Inf/Control [2]: 0.42 ± 0.40 | accumulation, Blood [2]: 0.10 ± 0.01 % ID/g tissue | accumulation, Control (healthy muscle) [2]: 0.76 ± 0.21 % ID/g tissue | accumulation, Inflammation [2]: 0.27 ± 0.22 % ID/g tissue | decrease in accumulation in tumor after taxeter, compared to non-treated mice [3]: ~50% | uptake ratio of malignant-to-normal prostate tissue [4]: 2.5 | stable after intravenous injection in vivo ([5]; mice, plasma radiochromatograms): more than 30 min | single radio-peak in plasma, share of total activity ([5]; mouse plasma after i.v. injection, no other peak observed): 97% | biodistribution, blood [6]: 0.02 ± 0.00 % ID/g | biodistribution, brain [6]: 0.07 ± 0.01 % ID/g | biodistribution, heart [6]: 35.39 ± 5.02 % ID/g | biodistribution, kidney [6]: 4.89 ± 0.88 % ID/g | biodistribution, liver [6]: 3.00 ± 1.12 % ID/g | biodistribution, lung [6]: 7.38 ± 1.55 % ID/g | biodistribution, muscle [6]: 4.31 ± 1.30 % ID/g | biodistribution, spleen [6]: 1.79 ± 0.57 % ID/g | cellular uptake in the presence of varying concentrations of CCCP ([7]; CCCP 30, 60, 90, 120 μM): dose-dependent decrease | MMP-dependent share of cellular uptake ([7]; CCCP 30-120 μM): 86% | uptake in tumor relative to healthy gland [8]: 4 times | uptake in tumor relative to inflammation ([8]; FCA inflammation 3 days): 3 times | accumulation in the myocardium, time to equilibrium ([9]; dog PET, 85 min scan): reached equilibrium within a few minutes | washout from the blood pool ([9]; dog, arterial blood samples): rapid washout | Ratio P/B ([10]; Slices 36–37, ROI1): 0.62 | Ratio P/B ([10]; Slices 36–37, ROI2): 0.91 | Ratio P/B ([10]; Slices 36–37, ROI3): 0.85 | Ratio P/B ([10]; Slices 46–49, ROI1): 0.56 | myocardial uptake, Baseline ([10]; Slices 46–49, ROI1, average activity over 36 to 85 min per slice): *108.62 % of injected dose | Ratio P/B ([10]; Slices 46–49, ROI2): 0.76 | Ratio P/B ([10]; Slices 46–49, ROI3): 0.82 | decrease in uptake in the inferior wall after pacing ([10]; dog, 4-wks pacing at 210 bpm versus baseline): 40–60%
